Measured values taken from US20110028507A1, “PYRIDINE DERIVATIVES AND METHODS OF USE THEREOF” (CRYSTALGENOMICS, INC., priority 2007, published 2011).
Where two headings read alike, the source gives them in different places.

What was measured:
HIF-PH2 (EGLN1) = target: T1, HIF-PH2 (EGLN1) (Homo sapiens, UniProt Q9GZT9); assay: HIF-PH2 (PHD2) assay (fluorescence polarization method); type: biochemical; settings: 200 nM HIF PH2 enzyme, 50 nM peptide substrate, 30° C. one hour; read-out: IC50 (HIF PH2 inhibition activity)
T1 construct: made in house; host or cells: E. coli
T1 sequence (Q9GZT9 whole entry, species assumed): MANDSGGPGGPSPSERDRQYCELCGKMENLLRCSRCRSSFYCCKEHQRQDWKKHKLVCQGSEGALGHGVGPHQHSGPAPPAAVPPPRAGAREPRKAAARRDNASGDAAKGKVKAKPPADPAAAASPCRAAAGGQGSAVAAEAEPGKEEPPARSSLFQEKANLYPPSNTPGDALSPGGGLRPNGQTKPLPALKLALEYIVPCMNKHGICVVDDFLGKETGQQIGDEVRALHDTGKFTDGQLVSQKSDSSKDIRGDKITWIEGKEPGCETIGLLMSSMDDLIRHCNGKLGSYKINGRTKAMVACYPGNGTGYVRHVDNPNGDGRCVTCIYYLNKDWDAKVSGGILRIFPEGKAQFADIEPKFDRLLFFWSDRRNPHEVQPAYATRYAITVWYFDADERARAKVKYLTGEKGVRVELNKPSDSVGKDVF
Procedure: HIF-PH2 (EGLN1) was expressed from E. coli cells, and purified using two process: an Ni-affinity chromatography column and a size-exclusion chromatography column.
To evaluate activities of an HIF PH2 inhibitor, HIF PH2 enzyme that was first overexpressed by genetic recombination and then purified was used to perform an enzyme reaction. […] At this time, 2 mM ascorbic acid and 5 mM ketoglutarate with 100 μM FeCl2 or without FeCl2, were used together with crude enzyme. A concentration of HIF PH2 inhibitor to be tested was treated and reacted at 30° C. for one hour. After the reaction, the resulting reaction product was boiled at 95° C. for one minute to suppress the enzyme reaction.
To determine whether prolyl hydroxylation occurs in the substrate as the secondary reaction, 500 nM GST-VBC (GST-VHL-Elongin B-Elongin C) protein was added to a reaction buffer (50 mM Tris-Cl (pH8.0), 120 mM NaCl, 0.5% Nonidet P40), and a GST-VBC binding reaction was carried out at room temperature for 30 minutes.
A fluorescence polarization value of a sample that is not treated with the HIF PH2 inhibitor was used as 100% control, and the activities of the HIF PH2 inhibitor were measured as percentage of the remaining HIF PH2 enzyme activity in samples treated with a concentration of the HIF PH2 inhibitor to be tested.

VEGF gene = assay: Cell-based luciferase reporter assay, pVEGF-Luc in HeLa cells; settings: Homo sapiens, compound 100 μM, 24 hrs
Excerpt: (§1) A luciferase assay was used to determine the changes in transcription amount of EPO and VEGF genes in cells. For the luciferase assay, a human HIF I a gene was first cloned into an animal cell expression vector, pFlag-CMV, to prepare a pFlag-HIF1α vector, and a hypoxia responsible element (HRE) sequence of an EPO gene 3′-enhancer domain was then cloned upstream of luciferase and TK promoter genes to prepare a pEPO HRE-Luc expression vector. Also, the promoter and luciferase domains of the VEGF gene were cloned into a pGL3-basic vector to prepare a pVEGF-Luc expression vector. HeLa cells were seed-cultured in a medium dish to grow to about 70-80% density one day before the HeLa cells were to be used. The HeLa cells were transfected with each of the prepared pEPO HRE-Luc and pVEGF-Luc expression vectors together with the pFlag-HIF1α and the Renilla luciferase expression vector (Promega, Madison, Wis., USA), by using LipofectAMINE PLUS™ (Invitrogen Life Technologies, Carlsbad Calif.). Three hours after the transfection, the medium was exchanged with DMEM, 1% Penicillin-Streptomycin in 10% FBS supplemented with serum. At this time, cultured cells were treated with each of the compounds at the concentrations indicated. Then, the cells were cultured for 24 hrs in an incubator that was maintained under conditions of 37° C., 20% O2 and 5% CO2. After culturing, cells were washed twice with cold phosphate buffer saline (PBS). Luciferase activity of the cells was measured using the dual luciferase assay system (Promega, Madison, Wis., USA).

EPO gene = assay: Cell-based luciferase reporter assay, pEPO HRE-Luc in HeLa cells; settings: Homo sapiens, compound 100 μM, 24 hrs, read-out: EPO fold induction over control
Excerpt: as §1

EPO = assay: Human EPO immunoassay (ELISA of Hep3B culture media); type: cell-based; settings: Hep3B cells, compound at 100 μM, 24-hour incubation; for EPO (mIU/ml): culture media ELISA; for fold induction at 100 µM: Homo sapiens, read-out: Fold Induction over control (EPO Induction)
Procedure: Human cells derived from hepatocarcinoma (Hep3B) tissue (see, e.g., American Type Culture Collection, Manassas Va.) were grown at 37° C., 20% O2, 5% CO2 in DMEM (GIBCO)+10% FBS, 4.5 g/L D-Glucose; L-Glutamate and 110 mg/L sodium pyruvate. Ninety-six well plates were seeded with 4×10^4 HEP3B cells/well. The media was removed and replaced with DMEM+10% FBS. Compounds were added to wells at concentrations between 1 μM-100 μM for a 24-hour incubation. Cell culture media was harvested and EPO concentration was determined using a Human Erythropoietin Quantikine IVD ELISA Kit (R&D Systems®, Minneapolis, Minn.) following the manufacturer's instructions for the benchtop assay.

[1] = read-out: VEGF 1 fold induction over control
[2] = read-out: VEGF 2 fold induction over control

IC50 (HIF-PH2 (EGLN1)) [µM]	SMILES	fold induction at 100 µM (VEGF gene; [1])	fold induction at 100 µM (EPO gene)	EPO (mIU/ml) (EPO)	fold induction at 100 µM (EPO)	fold induction at 100 µM (VEGF gene; [2])
26 to 100	C[C@H](NC(=O)c1nc(Br)c2c(sc3ccccc32)c1O)C(=O)O [(S)-2-[(1-Bromo-4-hydroxy-benzo[4,5]thieno[3,2-c]pyridine-3-carbonyl)-amino]-propionic acid]	> 4.1	2.1 to 4			
< 25	O=C(O)CNC(=O)c1nc(Cl)c2c(sc3cccc(F)c32)c1O [[(1-Chloro-9-fluoro-4-hydroxy-benzo[4,5]thieno[3,2-c]pyridine-3-carbonyl)-amino]-acetic acid]			K (K = 41-60 mIU/ml)	> 71	2.1 to 4
< 25	O=C(O)CNC(=O)c1nc(Cl)c2c(sc3ccc(F)cc32)c1O [[(1-Chloro-8-fluoro-4-hydroxy-benzo[4,5]thieno[3,2-c]pyridine-3-carbonyl)-amino]-acetic acid]	2.1 to 4	> 4.1	J (J = 21-40 mIU/ml)	21 to 50	
26 to 100	O=C(NCc1ccccc1)c1nc(Br)c2c(sc3ccccc32)c1O [1-Bromo-4-hydroxy-benzo[4,5]thieno[3,2-c]pyridine-3-carboxylic acid benzylamide]	< 2	< 2			
< 25	O=C(O)CNC(=O)c1nc(Cl)c2c(sc3cc(F)ccc32)c1O [[(1-Chloro-7-fluoro-4-hydroxy-benzo[4,5]thieno[3,2-c]pyridine-3-carbonyl)-amino]-acetic acid]	> 4.1	> 4.1	K (K = 41-60 mIU/ml)	51 to 70	
< 25	O=C(NCc1ccccn1)c1nc(Br)c2c(sc3ccccc32)c1O [1-Bromo-4-hydroxy-benzo[4,5]thieno[3,2-c]pyridine-3-carboxylic acid (pyridin-2-ylmethyl)-amide]	2.1 to 4	< 2			
< 25	O=C(O)CNC(=O)c1ncc2c(cnn2-c2ccccc2)c1O [[(4-Hydroxy-1-phenyl-1H-pyrazolo[3,4-c]pyridine-5-carbonyl)-amino]-acetic acid]	2.1 to 4	> 4.1			
< 25	COc1ccc(Cn2nnc(CNC(=O)c3nc(Br)c4c(sc5ccccc54)c3O)n2)cc1 [1-Bromo-4-hydroxy-benzo[4,5]thieno[3,2-c]pyridine-3-carboxylic acid [2-(4-methoxy-benzyl)-2H-tetrazol-5-ylmethyl]-amide]	2.1 to 4	< 2			
26 to 100	COc1ccc(Cn2nnnc2CNC(=O)c2nc(Br)c3c(sc4ccccc43)c2O)cc1 [1-Bromo-4-hydroxy-benzo[4,5]thieno[3,2-c]pyridine-3-carboxylic acid [1-(4-methoxy-benzyl)-1H-tetrazol-5-ylmethyl]-amide]	< 2	< 2			
< 25	O=C(O)CNC(=O)c1nc(Cl)c2c(cnn2-c2ccccc2)c1O [[(7-Chloro-4-hydroxy-1-phenyl-1H-pyrazolo[3,4-c]pyridine-5-carbonyl)-amino]-acetic acid]	2.1 to 4	> 4.1			
26 to 100	C[C@H](NC(=O)c1nc(Cl)c2c(sc3ccccc32)c1O)C(=O)O [(S)-2-[(1-Chloro-4-hydroxy-benzo[4,5]thieno[3,2-c]pyridine-3-carbonyl)-amino]-propionic acid]	> 4.1	2.1 to 4			
< 25	CC(=O)Nc1ccc2sc3c(O)c(C(=O)NCC(=O)O)nc(Cl)c3c2c1 [[(8-Acetylamino-1-chloro-4-hydroxy-benzo[4,5]thieno[3,2-c]pyridine-3-carbonyl)-amino]-acetic acid]					< 2
< 25	O=C(O)CNC(=O)c1nc(Cl)c2c(sc3c(F)cccc32)c1O [[(1-Chloro-6-fluoro-4-hydroxy-benzo[4,5]thieno[3,2-c]pyridine-3-carbonyl)-amino]-acetic acid]	2.1 to 4	2.1 to 4	I (I = 0-20 mIU/ml)	< 20	
	O=C(O)CNC(=O)c1nc(Cl)c2c(sc3ccccc32)c1O [[(1-Chloro-4-hydroxy-benzo[4,5]thieno[3,2-c]pyridine-3-carbonyl)-amino]-acetic acid]	> 4.1	> 4.1	J (J = 21-40 mIU/ml)	21 to 50	> 4.1
< 25	CN(C)c1ccc2sc3c(O)c(C(=O)NCC(=O)O)nc(Cl)c3c2c1 [[(1-Chloro-8-dimethylamino-4-hydroxy-benzo[4,5]thieno[3,2-c]pyridine-3-carbonyl)-amino]-acetic acid]	> 4.1	> 4.1			
	N#Cc1nc(C(=O)NCC(=O)O)c(O)c2sc3ccccc3c12 [[(1-Cyano-4-hydroxy-benzo[4,5]thieno[3,2-c]pyridine-3-carbonyl)-amino]-acetic acid]	2.1 to 4	< 2			
< 25	O=C(O)CNC(=O)c1nc(Br)c2c(sc3ccccc32)c1O [[(1-Bromo-4-hydroxy-benzo[4,5]thieno[3,2-c]pyridine-3-carbonyl)-amino]-acetic acid]	4	> 4.1			
< 25	O=C(O)CNC(=O)c1nc(Cl)c2c(sc3ccc([N+](=O)[O-])cc32)c1O [[(1-Chloro-4-hydroxy-8-nitro-benzo[4,5]thieno[3,2-c]pyridine-3-carbonyl)-amino]-acetic acid]	> 4.1	2.1 to 4			
< 25	Nc1ccc2sc3c(O)c(C(=O)NCC(=O)O)nc(Cl)c3c2c1 [3-(Carboxymethyl-carbamoyl)-1-chloro-4-hydroxy-benzo[4,5]thieno[3,2-c]pyridin-8-yl-ammonium]	2.1 to 4	2.1 to 4			
